Source: patent US10519152B2, “Compounds and their use in treating cancer” (AstraZeneca AB, priority 2017, dated 2019)

The molecules below were run against T1, recombinant human Estrogen Receptor alpha ligand binding domain, residues 307-554 (ER alpha-LBD (GST)) (Homo sapiens, UniProt P03372) (assay: ERα binding assay (LanthaScreen TR-FRET competition)). Settings: TR-FRET competition with Fluormone ES2 tracer, 4 hours at room temperature; single experiment or average of two or more.
T1 construct: made in house
T1 sequence (P03372 307-554): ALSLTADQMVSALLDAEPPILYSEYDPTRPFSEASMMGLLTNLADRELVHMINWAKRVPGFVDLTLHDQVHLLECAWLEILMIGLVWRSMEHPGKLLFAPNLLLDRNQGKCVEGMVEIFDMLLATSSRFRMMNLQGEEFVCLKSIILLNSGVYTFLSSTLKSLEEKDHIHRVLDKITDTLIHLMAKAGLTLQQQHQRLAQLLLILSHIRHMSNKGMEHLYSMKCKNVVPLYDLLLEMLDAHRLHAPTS
`Cc1ncsc1-c1ccc(CNC(=O)[C@@H]2C[C@@H](O)CN2C(=O)[C@@H](NC(=O)COCC/C=C/CCOc2cc(F)c([C@@H]3c4[nH]c5ccccc5c4C[C@@H](C)N3CC(C)(C)F)c(F)c2)C(C)(C)C)cc1` [Example 22, (2S,4R)-1-((S)-2-(2-(((E)-6-(3,5-Difluoro-4-((1R,3R)-2-(2-fluoro-2-methylpropyl)-3-methyl-2,3,4,9-tetrahydro-1H-pyrido[3,4-b]indol-1-yl)phenoxy)hex-3-en-1-yl)oxy)acetamido)-3,3-dimethylbutanoyl)-4-hydroxy-N-(4-(4-methylthiazol-5-yl)benzyl)pyrrolidine-2-carboxamide] showed an IC50 of 0.7 nM.
Work on `Cc1ncsc1-c1ccc(CNC(=O)[C@@H]2C[C@@H](O)CN2C(=O)[C@@H](NC(=O)COCCC(C)(C)CCOc2cc(F)c([C@@H]3c4[nH]c5ccccc5c4C[C@@H](C)N3CC(C)(C)F)c(F)c2)C(C)(C)C)cc1` [Example 23, (2S,4R)-1-((S)-2-(2-((5-(3,5-Difluoro-4-((1R,3R)-2-(2-fluoro-2-methylpropyl)-3-methyl-2,3,4,9-tetrahydro-1H-pyrido[3,4-b]indol-1-yl)phenoxy)-3,3-dimethylpentyl)oxy)acetamido)-3,3-dimethylbutanoyl)-4-hydroxy-N-(4-(4-methylthiazol-5-yl)benzyl)pyrrolidine-2-carboxamide] yielded an IC50 of 1.1 nM.
Work on `Cc1ncsc1-c1ccc(CNC(=O)[C@@H]2C[C@@H](O)CN2C(=O)[C@@H](NC(=O)COCCCOCCOc2ccc([C@@H]3c4[nH]c5ccccc5c4C[C@@H](C)N3CC(F)F)nc2)C(C)(C)C)cc1` [Example 26, (2S,4R)-1-((S)-2-(2-(3-(2-((6-((1S,3R)-2-(2,2-Difluoroethyl)-3-methyl-2,3,4,9-tetrahydro-1H-pyrido[3,4-b]indol-1-yl)pyridin-3-yl)oxy)ethoxy)propoxy)acetamido)-3,3-dimethylbutanoyl)-4-hydroxy-N-(4-(4-methylthiazol-5-yl)benzyl)pyrrolidine-2-carboxamide] yielded an IC50 of 25 nM.
For `Cc1ncsc1-c1ccc([C@H](C)NC(=O)[C@@H]2C[C@@H](O)CN2C(=O)[C@@H](NC(=O)COCCCCCOc2cc(F)c([C@@H]3c4[nH]c5ccccc5c4C[C@@H](C)N3CC(C)(C)F)c(F)c2)C(C)(C)C)cc1` [Example 28, (2S,4R)-1-((S)-2-(2-((5-(3,5-Difluoro-4-((1R,3R)-2-(2-fluoro-2-methylpropyl)-3-methyl-2,3,4,9-tetrahydro-1H-pyrido[3,4-b]indol-1-yl)phenoxy)pentyl)oxy)acetamido)-3,3-dimethylbutanoyl)-4-hydroxy-N—((S)-1-(4-(4-methylthiazol-5-yl)phenyl)ethyl)pyrrolidine-2-carboxamide], the IC50 was 0.8 nM.
`COC(=O)[C@@H](C)CN1[C@H](c2c(F)cc(OCCOCCOCCOCC(=O)N[C@H](C(=O)N3C[C@H](O)C[C@H]3C(=O)NCc3ccc(-c4scnc4C)cc3)C(C)(C)C)cc2F)c2[nH]c3ccccc3c2C[C@H]1C` [Example 29] showed an IC50 of 5.9 nM.
In the case of `Cc1ncsc1-c1ccc(CNC(=O)[C@@H]2C[C@@H](O)CN2C(=O)[C@@H](NC(=O)CCCCCCCCCCOc2cc(F)c([C@@H]3c4[nH]c5ccccc5c4C[C@@H](C)N3CC(C)(C)F)c(F)c2)C(C)(C)C)cc1` [Example 32, (2S,4R)-1-((S)-2-(11-(3,5-Difluoro-4-((1R,3R)-2-(2-fluoro-2-methylpropyl)-3-methyl-2,3,4,9-tetrahydro-1H-pyrido[3,4-b]indol-1-yl)phenoxy)undecanamido)-3,3-dimethylbutanoyl)-4-hydroxy-N-(4-(4-methylthiazol-5-yl)benzyl)pyrrolidine-2-carboxamide], the IC50 is reported as 2.3 nM.
